The text below walks through data of patent US20250136606A1, “MODULATORS OF TRPML, THEIR COMPOSITIONS AND METHODS OF USE” (Caraway Therapeutics, Inc., priority 2021, published 2025).

As usually defined, the pEC50 is −log10 of the EC50, conventionally taken in molar units.

Format in all cases: cell-based
Assay [1] addresses TRPML1 (Homo sapiens, UniProt Q9GZU1). Kind of assay: Fluorescent TRPML1 assay (Fluo4-AM calcium fluorescence in doxycycline-induced HEK-293 Trex cells). The gist of the method: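 hTRPML1 (mutated for cell-surface expression) in HEK-293 Trex, dox 0.5 ug/mL o/n; Fluo4-AM 1 uM ~60 min, then ~60 min de-esterification, dark; modified Ringer's + 10 mM Ca. Cmpds 20 uM–6 nM final, half-log, n=3. Ex480/Em540; % activity vs ctrls; EC50 by nonlinear regression.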

Assay [2] deals with T1, TRPML2 (Homo sapiens, UniProt Q8IZK6).
T1 construct: expressed in transfected cells
T1 sequence (Q8IZK6 1-566): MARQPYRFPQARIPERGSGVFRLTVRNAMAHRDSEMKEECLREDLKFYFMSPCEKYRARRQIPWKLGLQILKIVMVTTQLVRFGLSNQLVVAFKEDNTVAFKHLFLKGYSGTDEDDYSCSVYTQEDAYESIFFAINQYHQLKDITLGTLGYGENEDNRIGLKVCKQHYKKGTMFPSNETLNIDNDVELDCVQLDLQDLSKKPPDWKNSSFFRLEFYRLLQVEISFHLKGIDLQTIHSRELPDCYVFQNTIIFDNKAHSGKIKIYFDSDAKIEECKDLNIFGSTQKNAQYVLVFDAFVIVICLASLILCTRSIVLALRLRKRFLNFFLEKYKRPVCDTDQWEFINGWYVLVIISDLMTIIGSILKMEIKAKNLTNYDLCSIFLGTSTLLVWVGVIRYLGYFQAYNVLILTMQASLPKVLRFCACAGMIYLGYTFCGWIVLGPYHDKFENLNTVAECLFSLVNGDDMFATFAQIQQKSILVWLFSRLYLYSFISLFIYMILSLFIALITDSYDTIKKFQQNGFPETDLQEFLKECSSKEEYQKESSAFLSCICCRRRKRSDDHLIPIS
Description: Fluorescent TRPML2 assay (performed as for TRPML1, substituting the TRPML2 subtype). The gist of the method: (§1)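 Doxycycline-induced (0.5 ug/mL) HEK-293 Trex cells stably expressing surface-directed mutant channel were loaded with 1 micromolar Fluo4-AM, resuspended in Ringer's with 10 mM calcium and added to compound plates. Fluorescence (ex 480, em 540 nm) gave percent activity versus on-plate controls; EC50 by non-linear regression.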

Assay [3] concerns the target T2, TRPML3 (Homo sapiens, UniProt Q8TDD5).
T2 construct: expressed in transfected cells
T2 sequence (Q8TDD5 1-553): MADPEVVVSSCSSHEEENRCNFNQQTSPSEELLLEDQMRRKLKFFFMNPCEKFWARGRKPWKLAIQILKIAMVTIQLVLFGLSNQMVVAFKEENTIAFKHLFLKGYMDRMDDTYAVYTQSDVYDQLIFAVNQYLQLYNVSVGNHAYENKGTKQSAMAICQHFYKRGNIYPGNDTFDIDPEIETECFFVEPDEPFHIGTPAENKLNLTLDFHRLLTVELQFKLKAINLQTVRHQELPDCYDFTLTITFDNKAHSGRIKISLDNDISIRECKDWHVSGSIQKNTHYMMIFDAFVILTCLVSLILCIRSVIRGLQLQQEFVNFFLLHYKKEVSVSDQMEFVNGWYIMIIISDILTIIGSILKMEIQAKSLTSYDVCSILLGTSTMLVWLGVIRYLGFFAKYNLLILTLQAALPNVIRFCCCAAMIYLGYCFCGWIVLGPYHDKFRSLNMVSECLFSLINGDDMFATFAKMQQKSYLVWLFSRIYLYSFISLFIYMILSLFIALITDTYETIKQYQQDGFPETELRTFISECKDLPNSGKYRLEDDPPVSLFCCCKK
Description: Fluorescent TRPML3 assay (performed as for TRPML1, substituting the TRPML3 subtype). The gist of the method:
as §1

Molecules are shown by their SMILES. pEC50: −log10 of the molar value. Bounds are passed on as bounds.

Sequence of TRPML1 (Q9GZU1 whole entry L15A/L16A/L577A/L578A, form open): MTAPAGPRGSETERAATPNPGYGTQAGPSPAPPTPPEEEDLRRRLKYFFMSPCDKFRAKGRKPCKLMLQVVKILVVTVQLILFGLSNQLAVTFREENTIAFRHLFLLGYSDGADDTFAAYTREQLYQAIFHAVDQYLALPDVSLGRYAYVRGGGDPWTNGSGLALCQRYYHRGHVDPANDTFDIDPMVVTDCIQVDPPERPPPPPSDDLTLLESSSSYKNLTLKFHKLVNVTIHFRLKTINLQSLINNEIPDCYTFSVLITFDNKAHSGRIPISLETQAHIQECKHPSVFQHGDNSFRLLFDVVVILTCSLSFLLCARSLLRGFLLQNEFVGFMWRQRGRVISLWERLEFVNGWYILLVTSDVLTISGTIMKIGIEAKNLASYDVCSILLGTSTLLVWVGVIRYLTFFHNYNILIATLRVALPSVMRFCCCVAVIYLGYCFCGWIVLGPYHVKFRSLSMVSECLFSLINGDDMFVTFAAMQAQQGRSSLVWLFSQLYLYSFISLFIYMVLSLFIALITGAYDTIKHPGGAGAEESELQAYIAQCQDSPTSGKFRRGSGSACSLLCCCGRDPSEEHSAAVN

On to `C[C@@H]1CN(c2ncnc3c2c(C2CC2)cn3-c2cccc(F)c2)CCN1C(=O)OC(C)(C)C` [Compound 656, tert-butyl (R)-4-(5-cyclopropyl-7-(3-fluorophenyl)-7H-pyrrolo[2,3-d]pyrimidin-4-yl)-2-methylpiperazine-1-carboxylate], for which the results for the pEC50 in assay [1], in assay [2] and in assay [3] were more than 7.00, 6.30 to 7.00 and more than 7.00, respectively.
As for `C[C@@H]1CN(c2ncnc3c2c(C2CC2)cn3-c2cccc(F)c2)[C@@H](C)CN1C(=O)OC(C)(C)C` [Compound 657, tert-butyl (2R,5S)-4-(5-cyclopropyl-7-(3-fluorophenyl)-7H-pyrrolo[2,3-d]pyrimidin-4-yl)-2,5-dimethylpiperazine-1-carboxylate], the pEC50 in assay [1], in assay [2] and in assay [3] was more than 7.00 throughout.
As to `C[C@@H]1CN(c2ncnc3c2c(C2CC2)cn3-c2cccc(F)c2)[C@@H](C)CN1C(=O)OC1(C)CC1` [Compound 658, 1-methylcyclopropyl (2R,5S)-4-(5-cyclopropyl-7-(3-fluorophenyl)-7H-pyrrolo[2,3-d]pyrimidin-4-yl)-2,5-dimethylpiperazine-1-carboxylate], the pEC50 is more than 7.00 in assay [1], 5.70 to 6.30 in assay [2] and 6.30 to 7.00 in assay [3].
Turning to `C[C@@H]1CN(c2ncnc3c2c(C(F)(F)F)cn3-c2cc(F)ccn2)[C@@H](C)CN1C(=O)OC1(C)CC1` [Compound 659, 1-methylcyclopropyl (2R,5S)-4-(7-(4-fluoropyridin-2-yl)-5-(trifluoromethyl)-7H-pyrrolo[2,3-d]pyrimidin-4-yl)-2,5-dimethylpiperazine-1-carboxylate], the pEC50 is more than 7.00 in assay [1], less than 5.70 in assay [2] and 6.30 to 7.00 in assay [3].
Regarding `C[C@H]1CN(C(=O)OC2(C)CC2)CCN1c1ncnc2c1c(C(F)(F)F)cn2-c1cccc(Cl)c1` [Compound 660, 1-methylcyclopropyl (S)-4-(7-(3-chlorophenyl)-5-(trifluoromethyl)-7H-pyrrolo[2,3-d]pyrimidin-4-yl)-3-methylpiperazine-1-carboxylate], the figures for the pEC50 in assay [1], in assay [2] and in assay [3] were 6.30 to 7.00, 5.70 to 6.30 and 6.30 to 7.00, respectively.
With `C[C@@H]1CN(c2ncnc3c2c(C(F)(F)F)cn3-c2cc(F)cc(F)c2)[C@@H](C)CN1C(=O)OC1(C)CC1` [Compound 661, 1-methylcyclopropyl (2R,5S)-4-(7-(3,5-difluorophenyl)-5-(trifluoromethyl)-7H-pyrrolo[2,3-d]pyrimidin-4-yl)-2,5-dimethylpiperazine-1-carboxylate], the pEC50 in assay [1] was 6.30 to 7.00; in assay [2] it was 5.70 to 6.30; in assay [3], 6.30 to 7.00.
On to `C[C@@H]1CN(c2ncnc3c2c(C(F)(F)F)cn3-c2cncc(C#N)c2)[C@@H](C)CN1C(=O)OC(C)(C)C` [Compound 662, tert-butyl (2R,5S)-4-(7-(5-cyanopyridin-3-yl)-5-(trifluoromethyl)-7H-pyrrolo[2,3-d]pyrimidin-4-yl)-2,5-dimethylpiperazine-1-carboxylate], for which the pEC50 in assay [1] was more than 7.00; in assay [2] it was 6.30 to 7.00; in assay [3] it was more than 7.00.
In the case of `C[C@@H]1CN(c2ncnc3c2c(C(F)(F)F)cn3-c2ccccn2)[C@@H](C)CN1C(=O)OC(C)(C)C` [Compound 663, tert-butyl (2R,5S)-2,5-dimethyl-4-(7-(pyridin-2-yl)-5-(trifluoromethyl)-7H-pyrrolo[2,3-d]pyrimidin-4-yl)piperazine-1-carboxylate], the pEC50 in assay [1] is 6.30 to 7.00; in assay [2], less than 5.70; in assay [3], 6.30 to 7.00.
`COc1ccnc(-n2cc(C(F)(F)F)c3c(N4C[C@@H](C)N(C(=O)OC(C)(C)C)C[C@@H]4C)ncnc32)c1` [Compound 664, tert-butyl (2R,5S)-4-(7-(4-methoxypyridin-2-yl)-5-(trifluoromethyl)-7H-pyrrolo[2,3-d]pyrimidin-4-yl)-2,5-dimethylpiperazine-1-carboxylate]: the pEC50 in assay [1] was more than 7.00; in assay [2], 5.70 to 6.30; in assay [3], more than 7.00.
Turning to `Cc1ccnc(-n2cc(C(F)(F)F)c3c(N4C[C@@H](C)N(C(=O)OC(C)(C)C)C[C@@H]4C)ncnc32)c1` [Compound 665, tert-butyl (2R,5S)-2,5-dimethyl-4-(7-(4-methylpyridin-2-yl)-5-(trifluoromethyl)-7H-pyrrolo[2,3-d]pyrimidin-4-yl)piperazine-1-carboxylate], the pEC50 in assay [1] is more than 7.00; in assay [2], 5.70 to 6.30; in assay [3], more than 7.00.
On to `Cc1cn(-c2cccc(F)c2)c2ncnc(N3C[C@@H](C)N(C(=O)OC(C)(C)C)C[C@@H]3C)c12` [Compound 666, tert-butyl (2R,5S)-4-(7-(3-fluorophenyl)-5-methyl-7H-pyrrolo[2,3-d]pyrimidin-4-yl)-2,5-dimethylpiperazine-1-carboxylate], for which the pEC50 was more than 7.00 in assay [1], 6.30 to 7.00 in assay [2] and 6.30 to 7.00 in assay [3].
For the compound `Cc1cn(-c2cccc(C(F)(F)F)c2)c2ncnc(N3C[C@@H](C)N(C(=O)OC(C)(C)C)C[C@@H]3C)c12` [Compound 667, tert-butyl (2R,5S)-2,5-dimethyl-4-(5-methyl-7-(3-(trifluoromethyl)phenyl)-7H-pyrrolo[2,3-d]pyrimidin-4-yl)piperazine-1-carboxylate], the pEC50 is more than 7.00 in assay [1], 6.30 to 7.00 in assay [2] and more than 7.00 in assay [3].
For the compound `Cc1cn(-c2ccccc2)c2ncnc(N3C[C@@H](C)N(C(=O)OC(C)(C)C)C[C@@H]3C)c12` [Compound 668, tert-butyl (2R,5S)-2,5-dimethyl-4-(5-methyl-7-phenyl-7H-pyrrolo[2,3-d]pyrimidin-4-yl)piperazine-1-carboxylate], the pEC50 in assay [1] was 6.30 to 7.00; in assay [2] it was 5.70 to 6.30; in assay [3], 6.30 to 7.00.
For the compound `Cc1cn(-c2cccc(C#N)c2)c2ncnc(N3C[C@@H](C)N(C(=O)OC(C)(C)C)C[C@@H]3C)c12` [Compound 669, tert-butyl (2R,5S)-4-(7-(3-cyanophenyl)-5-methyl-7H-pyrrolo[2,3-d]pyrimidin-4-yl)-2,5-dimethylpiperazine-1-carboxylate], the pEC50 is more than 7.00 in assay [1], 5.70 to 6.30 in assay [2] and more than 7.00 in assay [3].
As to `Cc1cn(-c2cc(F)cc(F)c2)c2ncnc(N3C[C@@H](C)N(C(=O)OC(C)(C)C)C[C@@H]3C)c12` [Compound 670, tert-butyl (2R,5S)-4-(7-(3,5-difluorophenyl)-5-methyl-7H-pyrrolo[2,3-d]pyrimidin-4-yl)-2,5-dimethylpiperazine-1-carboxylate], the negative-log EC50 (pEC50) is 6.30 to 7.00 in assay [1], 5.70 to 6.30 in assay [2] and more than 7.00 in assay [3].
Consider `Cc1cn(-c2cccc(Cl)c2)c2ncnc(N3C[C@@H](C)N(C(=O)OC(C)(C)C)C[C@@H]3C)c12` [Compound 671, tert-butyl (2R,5S)-4-(7-(3-chlorophenyl)-5-methyl-7H-pyrrolo[2,3-d]pyrimidin-4-yl)-2,5-dimethylpiperazine-1-carboxylate], for which the results for the pEC50 in assay [1], in assay [2] and in assay [3] were more than 7.00, 6.30 to 7.00 and more than 7.00, respectively.
For `Cc1cn(-c2cncc(F)c2)c2ncnc(N3C[C@@H](C)N(C(=O)OC(C)(C)C)C[C@@H]3C)c12` [Compound 672, tert-butyl (2R,5S)-4-(7-(5-fluoropyridin-3-yl)-5-methyl-7H-pyrrolo[2,3-d]pyrimidin-4-yl)-2,5-dimethylpiperazine-1-carboxylate], the pEC50 in assay [1] is 6.30 to 7.00; in assay [2], 5.70 to 6.30; in assay [3] it was 6.30 to 7.00.
Turning to `Cc1cn(-c2ccccn2)c2ncnc(N3C[C@@H](C)N(C(=O)OC(C)(C)C)C[C@@H]3C)c12` [Compound 673, tert-butyl (2R,5S)-2,5-dimethyl-4-(5-methyl-7-(pyridin-2-yl)-7H-pyrrolo[2,3-d]pyrimidin-4-yl)piperazine-1-carboxylate], the pEC50 in assay [1] was 6.30 to 7.00; in assay [2] it was less than 5.70; in assay [3], 6.30 to 7.00.
